Results published in paper PMC6127852 (Journal of Enzyme Inhibition and Medicinal Chemistry, 2018).
In brackets after ≈: the same amount, converted by molar mass.

Experiments:
[1] = test system: polyA-polyU (RNA, polymer) A/U; assay: UV-Vis titration, Scatchard; details: PBS; for log Ks: I = 0.05 M (Table 1 says I = 0.015 M), cations not specified, I = 0.015 M (Methods: 0.05 M)
[2] = test system: polyG-polyC (polyC-polyG) (RNA, polymer) G/C; assay: UV-Vis titration, Scatchard; details: PBS; for log Ks: I = 0.05 M (Table 1 says I = 0.015 M), cations not specified, I = 0.015 M (Methods: 0.05 M), pH 7, per base
E. coli ATCC 25925 = assay: Broth microdilution MIC, E. coli ATCC 25925; type: cell-based; details: Escherichia coli, ATCC25925; Table S2
Method: (§1) The compounds were evaluated for their in vitro anti-bacterial activity against Gram-positive bacteria: S. aureus (ATCC 25923), MRSA, methicillin-sensitive S. aureus (MSSA), E. faecalis, vancomycin-resistant E. faecium (VREF), and Gram-negative bacteria: E. coli (ATCC 25925), P. aeruginosa (ATCC 27853), A. baumannii (ATCC 19606) and ESBL-producing K. pneumoniae (ATCC 27736). Standard broth microdilution method as recommended in guidelines of Clinical and Laboratory Standards Institute[61] ^, [65] ^, [66] was applied and the minimum inhibitory concentration (MIC) of compounds was tested. In short, testing was performed in U-bottomed 96-well sterile plastic microdilution trays (Falcon 3077, Becton Dickinson Labware, Franklin Lakes, NJ) in cation (Ca^2+ and Mg^2+) adjusted Mueller–Hinton broth medium (Becton Dickinson and Co., Cockeysville, MD). All testings were performed in triplicate.
(§2) The in vitro anti-bacterial activity of 5-amidinobenzimidazoles 7a–7e, 8a–8e, and 9a–9e was tested against Gram-positive bacteria including S. aureus (ATCC 25923), Enterococcus faecalis (ATCC 29212), and Gram-negative bacteria including E. coli (ATCC 25925), K. pneumoniae (ATCC 700803), P. aeruginosa (ATCC 27853), and Acinetobacter baumannii (ATCC 19606).

K. pneumonia ATCC 700803 = assay: Broth microdilution MIC, K. pneumoniae ATCC 700803; type: cell-based; details: Klebsiella pneumoniae, ATCC700803; Table S2
Method: as §1, §2

P. aeruginosa ATCC 27853 = assay: Broth microdilution MIC, P. aeruginosa ATCC 27853; type: cell-based; details: Pseudomonas aeruginosa, ATCC27853; Table S2
Method: as §1, §2

A. baumannii ATCC 19606 = assay: Broth microdilution MIC, A. baumannii ATCC 19606; type: cell-based; details: Acinetobacter baumannii, ATCC19606; Table S2
Method: as §1, §2

S. aureus MRSA = assay: Broth microdilution MIC, MRSA clinical strain; type: cell-based; details: Staphylococcus aureus, antibiotic-resistant clinical strain
Method: as §1

S. aureus MSSA = assay: Broth microdilution MIC, MSSA clinical strain; type: cell-based; details: Staphylococcus aureus
Method: as §1

E. faecium VRE = assay: Broth microdilution MIC, VRE clinical strain; type: cell-based; details: Enterococcus faecium
Method: as §1

S. aureus ATCC 25923 = assay: Broth microdilution MIC, S. aureus ATCC 25923; type: cell-based; details: Staphylococcus aureus, ATCC25923; Table S2
Method: as §1, §2

E. faecalis ATCC 29212 = assay: Broth microdilution MIC, E. faecalis ATCC 29212; type: cell-based; details: Enterococcus faecalis, ATCC29212; Table S2
Method: as §1, §2

[3] = test system: polyA-polyU (RNA, polymer) A/U; assay: UV melting at 260 nm; details: PBS, I = 0.05 M, cations not specified, pH 7, r = 0.3 [compound]/[polynucleotide]
[4] = pH 7, changes too small for accurate calculation, compound 14.8 µM

Compound: COc1ccc(-n2cc(COc3ccc(-c4nc5ccc(C(=N)N)cc5[nH]4)cc3)nn2)cc1
- binding [1, 4]: weak
- log Ks [2]: 6.27

Compound: O=C(O)c1cn(C2CC2)c2cc(N3CCNCC3)c(F)cc2c1=O [Ciprofloxacin, ciprofloxacin, reference compound]
- MIC (E. coli ATCC 25925): 0.004 µg/mL (≈ 0.0121 µM)
- MIC (K. pneumonia ATCC 700803): 0.06 µg/mL (≈ 0.181 µM)
- MIC (P. aeruginosa ATCC 27853): 0.5 µg/mL (≈ 1.51 µM)
- MIC (A. baumannii ATCC 19606): 0.06 µg/mL (≈ 0.181 µM)

Compound: CNC(C)C1CCC(N)C(OC2C(N)CC(N)C(OC3OCC(C)(O)C(NC)C3O)C2O)O1 (centres unmarked) [Gentamicin, gentamicin, reference compound]
- MIC (S. aureus MRSA): 0.25 µg/mL (≈ 0.523 µM)
- MIC (S. aureus MSSA): 0.125 µg/mL (≈ 0.262 µM)
- MIC (E. faecium VRE): 0.25 µg/mL (≈ 0.523 µM)
- MIC (S. aureus ATCC 25923): 0.125 µg/mL (≈ 0.262 µM)
- MIC (E. faecalis ATCC 29212): 8 µg/mL (≈ 16.8 µM)

Compound: CC(C)NC(=N)c1ccc2nc(-c3ccc(OCc4cn(CSc5ccccc5)nn4)cc3)[nH]c2c1
- ΔTm ([3]; error ±0.5 (shift within error), per base): 0.23 °C
- log Ks ([1]; pH 7, per base): 5.96
- log Ks [2]: 7.20

Compound: COc1ccc(-n2cc(COc3ccc(-c4nc5ccc(C6=NCCN6)cc5[nH]4)cc3)nn2)cc1
- ΔTm ([3]; error ±0.5, biphasic, second midpoint 36.08, per base): 2.67 °C
- log Ks ([1]; pH 7, n fixed, per base): 5.46
- binding [2, 4]: weak
